# Experimental data reported in ChEMBL document CHEMBL1147764, “Leptostatin: a synthetic hybrid of the cytotoxic polyketides callystatin A and leptomycin B” (Bioorg Med Chem Lett, 2006).
# System: HCT-116
# Assay: Cytotoxicity against HCT116 human colon cancer cell line
# Assay type: functional, cell-based
row,Compound,IC50 [nM]
1,CCC(=C/[C@H](C)C/C=C/C(C)=C/[C@@H](C)C(=O)[C@@H](C)[C@H](O)[C@@H](C)CC)/C=C/[C@H]1OC(=O)C=C[C@@H]1C,2
2,CCC(=C/[C@H](C)C/C=C/C(C)=C/[C@@H](C)C(=O)[C@@H](C)[C@H](O)[C@@H](C)CC)/C=C/[C@H]1OC(=O)C=C[C@H]1C,0.2
3,CCC(=C/[C@H](C)C/C=C/C(C)=C/[C@@H](C)C(=O)[C@@H](C)[C@H](O)[C@@H](C)CC)/C=C/[C@H]1CC=CC(=O)O1 [CALLYSTATIN A],0.03
4,CCC(=C/[C@H](C)C/C=C/C(C)=C/[C@@H](C)C(=O)[C@@H](C)[C@H](O)[C@@H](C)CC)/C=C/[C@@H]1OC(=O)C=C[C@@H]1C,3
5,CCC(=C/[C@H](C)C/C=C/C(C)=C/[C@@H](C)C(=O)[C@@H](C)[C@H](O)[C@@H](C)CC)/C=C/[C@@H]1OC(=O)C=C[C@H]1C,30
